Source: ChEMBL document CHEMBL3232987, “Investigation of Ugi-4CC derived 1H-tetrazol-5-yl-(aryl) methyl piperazinyl-6-fluoro-4-oxo-1,4-dihydroquinoline-3-carboxylic acid: synthesis, biology and 3D-QSAR analysis” (Eur J Med Chem, 2014)
In brackets after ≈: the same amount, converted by molar mass.

Assays:
Staphylococcus aureus [1] = assay: Antibacterial activity against methicillin-resistant Staphylococcus aureus ATCC 700699 by NCCLS two-fold dilution method; type: functional
Staphylococcus aureus [2] = assay: Antibacterial activity against Staphylococcus aureus ATCC 25923 after 24 hrs by spectrophotometric analysis; type: functional, organism-based; conditions: Staphylococcus aureus, ATCC 25923, 24 h; for IC50: read-out: IC50
Staphylococcus aureus [3] = assay: Antibacterial activity against Staphylococcus aureus ATCC 29213 after 24 hrs by spectrophotometric analysis; type: functional, organism-based; conditions: Staphylococcus aureus, ATCC 29213, 24 h; for IC50: read-out: IC50
Staphylococcus aureus [4] = assay: Antibacterial activity against Staphylococcus aureus ATCC 25923 by NCCLS two-fold dilution method; type: functional; conditions: for MIC: Staphylococcus aureus, ATCC 25923
Staphylococcus aureus [5] = assay: Antibacterial activity against methicillin-resistant Staphylococcus aureus ATCC 700699 after 24 hrs by spectrophotometric analysis; type: functional, organism-based; conditions: Staphylococcus aureus, ATCC 700699, 24 h; for IC50: read-out: IC50
Staphylococcus aureus [6] = assay: Antibacterial activity against Staphylococcus aureus ATCC 29213 by NCCLS two-fold dilution method; type: functional
Staphylococcus aureus [7] = assay: Antibacterial activity against gentamicin-resistant Staphylococcus aureus ATCC 33592 by NCCLS two-fold dilution method; type: functional
Staphylococcus aureus [8] = assay: Antibacterial activity against gentamicin-resistant Staphylococcus aureus ATCC 33592 after 24 hrs by spectrophotometric analysis; type: functional, organism-based; conditions: Staphylococcus aureus, ATCC 33592, 24 h; for IC50: read-out: IC50

## COc1ccc(C(c2nnnn2C2CCCCC2)N2CCN(c3cc4c(cc3F)c(=O)c(C(=O)O)cn4Cc3ccc(C(F)(F)F)cc3)CC2)c2ccccc12 (stereo not drawn)
Staphylococcus aureus [1]
  MIC: > 50 µg/mL
Staphylococcus aureus [2]
  MIC: > 50 µg/mL
  IC50: 50 µg/mL (≈ 65 µM)
Staphylococcus aureus [3]
  MIC: > 50 µg/mL
  IC50: > 50 µg/mL
Staphylococcus aureus [4]
  -logMIC: 4.187
  MIC: 50 µg/mL (≈ 65 µM)
Staphylococcus aureus [5]
  MIC: > 50 µg/mL
  IC50: > 50 µg/mL
Staphylococcus aureus [6]
  MIC: > 50 µg/mL
Staphylococcus aureus [7]
  MIC: > 50 µg/mL
Staphylococcus aureus [8]
  MIC: > 50 µg/mL
  IC50: > 50 µg/mL

## CCn1cc(C(=O)O)c(=O)c2cc(F)c(N3CCN(C(c4ccc(OC)c5ccccc45)c4nnnn4C4CCCCC4)CC3)cc21 (stereo not drawn)
Staphylococcus aureus [1]
  MIC: 25 µg/mL (≈ 39.1 µM)
Staphylococcus aureus [2]
  MIC: 4.4 µg/mL (≈ 6.88 µM)
  IC50: 1.7 µg/mL (≈ 2.66 µM)
Staphylococcus aureus [3]
  MIC: 6.9 µg/mL (≈ 10.8 µM)
  IC50: 3.6 µg/mL (≈ 5.63 µM)
Staphylococcus aureus [4]
  -logMIC: 5.01
  MIC: 6.25 µg/mL (≈ 9.77 µM)
Staphylococcus aureus [5]
  MIC: 9 µg/mL (≈ 14.1 µM)
  IC50: 4.06 µg/mL (≈ 6.35 µM)
Staphylococcus aureus [6]
  MIC: 12.5 µg/mL (≈ 19.5 µM)
Staphylococcus aureus [7]
  MIC: 6.25 µg/mL (≈ 9.77 µM)
Staphylococcus aureus [8]
  MIC: 4.7 µg/mL (≈ 7.35 µM)
  IC50: 3.6 µg/mL (≈ 5.63 µM)

## CC(C)c1ccc(C(c2nnnn2C2CCCCC2)N2CCN(c3cc4c(cc3F)c(=O)c(C(=O)O)cn4Cc3ccc(C(F)(F)F)cc3)CC2)cc1 (stereo not drawn)
Staphylococcus aureus [1]
  MIC: > 50 µg/mL
Staphylococcus aureus [2]
  MIC: 50 µg/mL (≈ 68.3 µM)
  IC50: > 50 µg/mL
Staphylococcus aureus [3]
  MIC: > 50 µg/mL
  IC50: 50 µg/mL (≈ 68.3 µM)
Staphylococcus aureus [4]
  -logMIC: 4.165
  MIC: 50 µg/mL (≈ 68.3 µM)
Staphylococcus aureus [5]
  MIC: 50 µg/mL (≈ 68.3 µM)
  IC50: > 50 µg/mL
Staphylococcus aureus [6]
  MIC: > 50 µg/mL
Staphylococcus aureus [7]
  MIC: > 50 µg/mL
Staphylococcus aureus [8]
  MIC: > 50 µg/mL
  IC50: 50 µg/mL (≈ 68.3 µM)

## CC(C)(C)n1nnnc1C(c1cccc2ccccc12)N1CCN(c2cc3c(cc2F)c(=O)c(C(=O)O)cn3Cc2ccc(C(F)(F)F)cc2)CC1 (stereo not drawn)
Staphylococcus aureus [1]
  MIC: 50 µg/mL (≈ 70.1 µM)
Staphylococcus aureus [2]
  MIC: 50 µg/mL (≈ 70.1 µM)
  IC50: 50 µg/mL (≈ 70.1 µM)
Staphylococcus aureus [3]
  MIC: 50 µg/mL (≈ 70.1 µM)
  IC50: > 50 µg/mL
Staphylococcus aureus [4]
  -logMIC: 4.455
  MIC: 50 µg/mL (≈ 70.1 µM)
Staphylococcus aureus [5]
  MIC: 50 µg/mL (≈ 70.1 µM)
  IC50: 50 µg/mL (≈ 70.1 µM)
Staphylococcus aureus [6]
  MIC: 50 µg/mL (≈ 70.1 µM)
Staphylococcus aureus [7]
  MIC: 50 µg/mL (≈ 70.1 µM)
Staphylococcus aureus [8]
  MIC: > 50 µg/mL
  IC50: > 50 µg/mL

## O=C(O)c1cn(Cc2ccc(C(F)(F)F)cc2)c2cc(N3CCN(C(c4cccc5ccccc45)c4nnnn4C4CCCCC4)CC3)c(F)cc2c1=O (stereo not drawn)
Staphylococcus aureus [1]
  MIC: > 50 µg/mL
Staphylococcus aureus [2]
  MIC: > 50 µg/mL
  IC50: 50 µg/mL (≈ 67.6 µM)
Staphylococcus aureus [3]
  MIC: > 50 µg/mL
  IC50: > 50 µg/mL
Staphylococcus aureus [4]
  -logMIC: 4.169
  MIC: 50 µg/mL (≈ 67.6 µM)
Staphylococcus aureus [5]
  MIC: > 50 µg/mL
  IC50: > 50 µg/mL
Staphylococcus aureus [6]
  MIC: > 50 µg/mL
Staphylococcus aureus [7]
  MIC: > 50 µg/mL
Staphylococcus aureus [8]
  MIC: > 50 µg/mL
  IC50: > 50 µg/mL

## CC(C)c1ccc(C(c2nnnn2C(C)(C)C)N2CCN(c3cc4c(cc3F)c(=O)c(C(=O)O)cn4Cc3ccc(C(F)(F)F)cc3)CC2)cc1 (stereo not drawn)
Staphylococcus aureus [1]
  MIC: 3.12 µg/mL (≈ 4.42 µM)
Staphylococcus aureus [2]
  MIC: 3.12 µg/mL (≈ 4.42 µM)
  IC50: 1.8 µg/mL (≈ 2.55 µM)
Staphylococcus aureus [3]
  MIC: 3.1 µg/mL (≈ 4.39 µM)
  IC50: 1.5 µg/mL (≈ 2.13 µM)
Staphylococcus aureus [4]
  -logMIC: 4.149
  MIC: 3.12 µg/mL (≈ 4.42 µM)
Staphylococcus aureus [5]
  MIC: 1.6 µg/mL (≈ 2.27 µM)
  IC50: 1.4 µg/mL (≈ 1.98 µM)
Staphylococcus aureus [6]
  MIC: 6.25 µg/mL (≈ 8.86 µM)
Staphylococcus aureus [7]
  MIC: 3.12 µg/mL (≈ 4.42 µM)
Staphylococcus aureus [8]
  MIC: 0.87 µg/mL (≈ 1.23 µM)
  IC50: 0.8 µg/mL (≈ 1.13 µM)

## CC(C)(C)n1nnnc1C(c1ccccc1)N1CCN(c2cc3c(cc2F)c(=O)c(C(=O)O)cn3Cc2ccc(C(F)(F)F)cc2)CC1 (stereo not drawn)
Staphylococcus aureus [1]
  MIC: 25 µg/mL (≈ 37.7 µM)
Staphylococcus aureus [2]
  MIC: 50 µg/mL (≈ 75.3 µM)
  IC50: 50 µg/mL (≈ 75.3 µM)
Staphylococcus aureus [3]
  MIC: 50 µg/mL (≈ 75.3 µM)
  IC50: 50 µg/mL (≈ 75.3 µM)
Staphylococcus aureus [4]
  -logMIC: 4.122
  MIC: 50 µg/mL (≈ 75.3 µM)
Staphylococcus aureus [5]
  MIC: 50 µg/mL (≈ 75.3 µM)
  IC50: 50 µg/mL (≈ 75.3 µM)
Staphylococcus aureus [6]
  MIC: 25 µg/mL (≈ 37.7 µM)
Staphylococcus aureus [7]
  MIC: 12.5 µg/mL (≈ 18.8 µM)
Staphylococcus aureus [8]
  MIC: 50 µg/mL (≈ 75.3 µM)
  IC50: 50 µg/mL (≈ 75.3 µM)

## O=C(O)c1cn(Cc2ccc(C(F)(F)F)cc2)c2cc(N3CCN(C(c4ccccc4)c4nnnn4C4CCCCC4)CC3)c(F)cc2c1=O (stereo not drawn)
Staphylococcus aureus [1]
  MIC: > 50 µg/mL
Staphylococcus aureus [2]
  MIC: 17.5 µg/mL (≈ 25.4 µM)
  IC50: 5.2 µg/mL (≈ 7.54 µM)
Staphylococcus aureus [3]
  MIC: 4.4 µg/mL (≈ 6.38 µM)
  IC50: 2.2 µg/mL (≈ 3.19 µM)
Staphylococcus aureus [4]
  -logMIC: 4.741
  MIC: 12.5 µg/mL (≈ 18.1 µM)
Staphylococcus aureus [5]
  MIC: > 50 µg/mL
  IC50: > 50 µg/mL
Staphylococcus aureus [6]
  MIC: 6.25 µg/mL (≈ 9.06 µM)
Staphylococcus aureus [7]
  MIC: 25 µg/mL (≈ 36.2 µM)
Staphylococcus aureus [8]
  MIC: 40.5 µg/mL (≈ 58.7 µM)
  IC50: 21 µg/mL (≈ 30.4 µM)

## CCn1cc(C(=O)O)c(=O)c2cc(F)c(N3CCN(C(c4ccc(C(C)C)cc4)c4nnnn4C4CCCCC4)CC3)cc21 (stereo not drawn)
Staphylococcus aureus [1]
  MIC: 50 µg/mL (≈ 83.1 µM)
Staphylococcus aureus [2]
  MIC: 19 µg/mL (≈ 31.6 µM)
  IC50: 8 µg/mL (≈ 13.3 µM)
Staphylococcus aureus [3]
  MIC: 3.3 µg/mL (≈ 5.48 µM)
  IC50: 3.1 µg/mL (≈ 5.15 µM)
Staphylococcus aureus [4]
  -logMIC: 4.682
  MIC: 12.5 µg/mL (≈ 20.8 µM)
Staphylococcus aureus [5]
  MIC: 50 µg/mL (≈ 83.1 µM)
  IC50: 50 µg/mL (≈ 83.1 µM)
Staphylococcus aureus [6]
  MIC: 12.5 µg/mL (≈ 20.8 µM)
Staphylococcus aureus [7]
  MIC: 3.12 µg/mL (≈ 5.19 µM)
Staphylococcus aureus [8]
  MIC: 1.6 µg/mL (≈ 2.66 µM)
  IC50: 1.5 µg/mL (≈ 2.49 µM)

## CCn1cc(C(=O)O)c(=O)c2cc(F)c(N3CCN(C(c4ccc(F)cc4)c4nnnn4C4CCCCC4)CC3)cc21 (stereo not drawn)
Staphylococcus aureus [1]
  MIC: 50 µg/mL (≈ 86.6 µM)
Staphylococcus aureus [2]
  MIC: 2.1 µg/mL (≈ 3.64 µM)
  IC50: 0.5 µg/mL (≈ 0.866 µM)
Staphylococcus aureus [3]
  MIC: > 50 µg/mL
  IC50: 50 µg/mL (≈ 86.6 µM)
Staphylococcus aureus [4]
  -logMIC: 5.568
  MIC: 1.56 µg/mL (≈ 2.7 µM)
Staphylococcus aureus [5]
  MIC: 50 µg/mL (≈ 86.6 µM)
  IC50: 50 µg/mL (≈ 86.6 µM)
Staphylococcus aureus [6]
  MIC: 50 µg/mL (≈ 86.6 µM)
Staphylococcus aureus [7]
  MIC: 50 µg/mL (≈ 86.6 µM)
Staphylococcus aureus [8]
  MIC: 50 µg/mL (≈ 86.6 µM)
  IC50: 50 µg/mL (≈ 86.6 µM)

## CCn1cc(C(=O)O)c(=O)c2cc(F)c(N3CCN(C(c4ccc(C(C)C)cc4)c4nnnn4C(C)(C)C)CC3)cc21 (stereo not drawn)
Staphylococcus aureus [1]
  MIC: 50 µg/mL (≈ 86.9 µM)
Staphylococcus aureus [2]
  MIC: 50 µg/mL (≈ 86.9 µM)
  IC50: 50 µg/mL (≈ 86.9 µM)
Staphylococcus aureus [3]
  MIC: > 50 µg/mL
  IC50: 50 µg/mL (≈ 86.9 µM)
Staphylococcus aureus [4]
  -logMIC: 4.06
  MIC: 50 µg/mL (≈ 86.9 µM)
Staphylococcus aureus [5]
  MIC: 50 µg/mL (≈ 86.9 µM)
  IC50: 50 µg/mL (≈ 86.9 µM)
Staphylococcus aureus [6]
  MIC: 50 µg/mL (≈ 86.9 µM)
Staphylococcus aureus [7]
  MIC: > 50 µg/mL
Staphylococcus aureus [8]
  MIC: 50 µg/mL (≈ 86.9 µM)
  IC50: > 50 µg/mL
